{
  "source": "patent US7968577B2",
  "about": "(Bristol-Myers Squibb Company, priority 2006, dated 2011)",
  "data": [
    {"biological_target": "T1, human glucocorticoid receptor (Homo sapiens, UniProt P04150)", "T1 construct": "purified human recombinant full-length glucocorticoid receptor; purchased Invitrogen Part #2893", "T1 sequence (P04150 1-777)": "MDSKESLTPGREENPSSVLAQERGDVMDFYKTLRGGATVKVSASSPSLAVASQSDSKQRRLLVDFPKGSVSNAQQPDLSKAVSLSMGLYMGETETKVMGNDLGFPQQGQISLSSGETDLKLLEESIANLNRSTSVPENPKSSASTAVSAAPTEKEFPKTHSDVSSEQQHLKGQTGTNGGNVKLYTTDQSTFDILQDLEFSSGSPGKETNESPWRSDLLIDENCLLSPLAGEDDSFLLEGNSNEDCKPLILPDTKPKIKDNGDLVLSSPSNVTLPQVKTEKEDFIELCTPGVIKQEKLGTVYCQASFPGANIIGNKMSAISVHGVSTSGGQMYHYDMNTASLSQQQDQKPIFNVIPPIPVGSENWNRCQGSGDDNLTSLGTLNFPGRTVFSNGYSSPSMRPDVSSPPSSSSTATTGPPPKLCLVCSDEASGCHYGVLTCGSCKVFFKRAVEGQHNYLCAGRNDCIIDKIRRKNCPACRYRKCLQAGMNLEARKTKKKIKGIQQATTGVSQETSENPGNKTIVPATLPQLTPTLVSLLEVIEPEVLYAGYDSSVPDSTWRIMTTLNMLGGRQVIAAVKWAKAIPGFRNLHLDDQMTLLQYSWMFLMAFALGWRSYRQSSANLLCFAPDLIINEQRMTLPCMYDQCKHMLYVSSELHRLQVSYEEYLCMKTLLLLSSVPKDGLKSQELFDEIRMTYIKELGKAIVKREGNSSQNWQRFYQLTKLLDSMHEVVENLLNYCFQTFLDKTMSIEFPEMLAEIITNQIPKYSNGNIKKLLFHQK", "experiment": "Glucocorticoid Receptor Binding Assay (I), fluorescence polarization competitor kit (Fluormone GS Red)", "settings": "GR Binding Assay (I)", "method": "Glucocorticoid Receptor Binding Assay (I)^a\nIn order to assess the affinity of test compounds for the human glucocorticoid receptor, a commercially available kit was used (Glucocorticoid Receptor Competitor Assay Kit, Invitrogen Part #2893). Briefly, purified human recombinant full-length glucocorticoid receptor (2 nM) was mixed with fluorescently labeled glucocorticoid (1 nM Fluormone GS Red) in the presence or absence of test compound. After two hour incubation at room temperature in the dark, the fluorescence polarization (FP) of the samples was measured. […] Test compounds were analyzed in the concentration range from 8.5 E-05 μM to 5 μM.", "units": {"Ki": "nM"}, "values": [
      {"smiles": "CCC(CC)(C(=O)Nc1nccs1)C(c1ccccc1)c1ccccc1", "note": "[Example 159, 2-(diphenylmethyl)-2-ethyl-N-1,3-thiaozl-2-ylbutanamide]", "Ki": 101},
      {"smiles": "CCOc1ccc(-c2ccc(C(c3ccccc3)C(C)(C)C(=O)Nc3nncs3)cc2)cc1", "note": "(stereo not shown) [Example 419, 3-(4′-ethoxy-4-biphenylyl)-2,2-dimethyl-3-phenyl-N-1,3,4-thiadiazol-2-ylpropanamide]", "Ki": 5.53},
      {"smiles": "CC(C)CC(c1ccc(Br)cc1)C(C)(C)C(=O)Nc1nncs1", "note": "(stereo not shown) [Example 387, 3-(4-bromophenyl)-2,2,5-trimethyl-N-1,3,4-thiadiazol-2-ylhexanamide]", "Ki": 17.1}
    ]},
    {"biological_target": "T2, human full-length glucocorticoid receptor (Homo sapiens, UniProt P04150)", "T2 construct": "recombinantly expressed human full-length glucocorticoid receptor; purchased PanVera Co., Madison, Wis; P2816", "T2 sequence (P04150 1-777)": "T1 sequence (P04150 1-777)", "experiment": "Glucocorticoid Receptor Binding Assay (II), fluorescence polarization competitor kit (Fluormone GS1)", "settings": "GR Binding Assay (II)", "method": "Glucocorticoid Receptor Binding Assay (II)^b\nIn order to measure the binding of compounds on the glucocorticoid receptor a commercially available kit was used (Glucocorticoid receptor competitor assay kit, PanVera Co., Madison, Wis., P2816). Briefly, a cell lysate containing recombinantly expressed human full-length glucocorticoid receptor was mixed with a fluorescently labeled glucocorticoid (1 nM Fluormone GS1) in the presence or absence of test compound. After one hour at room temperature, the fluorescence polarization (FP) of the samples were measured.", "units": {"Ki": "nM"}, "values": [
      {"smiles": "CC(C)(C(=O)Nc1nccs1)[C@@H](c1ccccc1)c1cccc(O)c1", "note": "[Example 327, 3-(3-hydroxyphenyl)-2,2-dimethyl-3-phenyl-N-1,3-thiazol-2-ylpropanamide]", "Ki": 90.9},
      {"smiles": "COc1ccc([C@@H](c2ccccc2)C(C)(C)C(=O)NC2CCC2)cc1", "note": "[Example 272, (3R)-N-cyclobutyl-2,2-dimethyl-3-(4-(methyloxy)phenyl)-3-phenylpropanamide]", "Ki": 1160},
      {"smiles": "CC(C)(C(=O)NC1CCC1)[C@H](c1ccccc1)c1ccc(O)cc1", "note": "[Example 334, (3R)-N-cyclobutyl-3-(4-hydroxyphenyl)-2,2-dimethyl-3-phenylpropanamide]", "Ki": 395},
      {"smiles": "CC(C)(C(=O)Nc1nncs1)C(c1ccccc1)c1ccc(O)cc1F", "note": "(stereo not shown) [Example 344, 3-(2-fluoro-4-hydroxyphenyl)-2,2-dimethyl-3-phenyl-N-1,3,4-thiadiazol-2-ylpropanamide]", "Ki": 43.2},
      {"smiles": "COc1ccc([C@@H](c2ccccc2)C(C)(C)C(=O)Nc2nccs2)cc1C#N", "note": "[Example 296, (3R)-3-(3-Cyano-4-(methyloxy)phenyl)-2,2-dimethyl-3-phenyl-N-1,3-thiazol-2-ylpropanamide]", "Ki": 45.7},
      {"smiles": "CC(C)(C(=O)Nc1nncs1)C(c1ccccc1)c1cccc(N2CCOCC2)c1", "note": "(stereo not shown) [Example 245, 2,2-dimethyl-3-(3-(4-morpholinyl)phenyl)-3-phenyl-N-1,3,4-thiadiazol-2-ylpropanamide]", "Ki": 2310},
      {"smiles": "CC(C)(C)OC(=O)Nc1ccc(C(c2ccccc2)C(C)(C)C(=O)Nc2nncs2)cc1", "note": "(stereo not shown) [Example 248, 1,1-dimethylethyl (4-(2,2-dimethyl-3-oxo-1-phenyl-3-(1,3,4-thiadiazol-2-ylamino)propyl)phenyl)carbamate]", "Ki": 306},
      {"smiles": "Cc1cnc(NC(=O)C(C)(C)[C@@H](c2ccccc2)c2ccc(O)cc2)s1", "note": "[Example 331, (3S)-3-(4-hydroxyphenyl)-2,2-dimethyl-N-(5-methyl-1,3-thiazol-2-yl)-3-phenylpropanamide]", "Ki": 18.8},
      {"smiles": "CC(C)(C(=O)Nc1nccs1)[C@H](c1ccccc1)c1ccc(OC(=O)c2ccoc2)cc1", "note": "[Example 365, 4-((1R)-2,2-dimethyl-3-oxo-1-phenyl-3-(1,3-thiazol-2-ylamino)propyl)phenyl 3-furancarboxylate]", "Ki": 31.9},
      {"smiles": "COc1ccc([C@H](c2ccccc2)C(C)(C)C(=O)Nc2ncc(C)s2)cc1", "note": "[Example 267, (3S)-2,2-dimethyl-3-(4-(methyloxy)phenyl)-N-(5-methyl-1,3-thiazol-2-yl)-3-phenylpropanamide]", "Ki": 111},
      {"smiles": "CC(C)(C(=O)Nc1nccs1)C(C)(c1ccccc1)c1ccccc1", "note": "[Example 316, 2,2-dimethyl-3,3-diphenyl-N-1,3-thiazol-2-ylbutanamide]", "Ki": 472},
      {"smiles": "CC(C)(C(=O)Nc1nccs1)C(c1ccccc1)c1ccc(F)cc1", "note": "(stereo not shown) [Example 309, 3-(4-fluorophenyl)-2,2-dimethyl-3-phenyl-N-1,3-thiazol-2-ylpropanamide]", "Ki": 76.4},
      {"smiles": "CC(C)(C(=O)Nc1nccs1)C(c1ccccc1)c1ccc(N2CCC(O)CC2)cc1", "note": "(stereo not shown) [Example 242, 3-(4-(4-hydroxy-1-piperidinyl)phenyl)-2,2-dimethyl-3-phenyl-N-1,3-thiazol-2-ylpropanamide]", "Ki": 9.6},
      {"smiles": "CC(C)(C(=O)Nc1nncs1)C(c1ccccc1)c1ccc(N2CCNCC2)cc1", "note": "(stereo not shown) [Example 251, 2,2-dimethyl-3-phenyl-3-(4-(1-piperazinyl)phenyl)-N-1,3,4-thiadiazol-2-ylpropanamide]", "Ki": 636},
      {"smiles": "CCOC(=O)c1csc(NC(=O)C(C)(C)[C@@H](c2ccccc2)c2ccc(O)cc2)n1", "note": "[Example 338, ethyl 2-(((3S)-3-(4-hydroxyphenyl)-2,2-dimethyl-3-phenylpropanoyl)amino)-1,3-thiazole-4-carboxylate]", "Ki": 11.8},
      {"smiles": "CC(C)(C(=O)Nc1nncs1)C(c1ccc(F)cc1)c1ccc(N2CCOCC2)cc1", "note": "(stereo not shown) [Example 231, 3-(4-fluorophenyl)-2,2-dimethyl-3-(4-(4-morpholinyl)phenyl)-N-1,3,4-thiadiazol-2-ylpropanamide]", "Ki": 18.2},
      {"smiles": "COc1ccc(C(c2ccccc2)C(C)(C)C(=O)Nc2nncs2)cc1F", "note": "(stereo not shown) [Example 285, 3-(3-fluoro-4-(methyloxy)phenyl)-2,2-dimethyl-3-phenyl-N-1,3,4-thiadiazol-2-ylpropanamide]", "Ki": 13.8},
      {"smiles": "CCOC(=O)c1csc(NC(=O)C(C)(C)[C@@H](c2ccccc2)c2ccc(OC)cc2)n1", "note": "[Example 263, ethyl 2-((2,2-dimethyl-3-(4-(methyloxy)phenyl)-3-phenylpropanoyl)amino)-1,3-thiazole-4-carboxylate]", "Ki": 130},
      {"smiles": "CC(C)(C(=O)Nc1nccs1)C(c1ccccc1)c1ccc(F)cc1", "note": "(stereo not shown) [Example 308, 3-(4-fluorophenyl)-2,2-dimethyl-3-phenyl-N-1,3-thiazol-2-ylpropanamide]", "Ki": 35},
      {"smiles": "CC(C)(C(=O)NC1CCC1)[C@@H](c1ccccc1)c1ccc(O)cc1", "note": "[Example 333, (3S)-N-cyclobutyl-3-(4-hydroxyphenyl)-2,2-dimethyl-3-phenylpropanamide]", "Ki": 392},
      {"smiles": "CC(C)(C(=O)Nc1nccs1)C(c1ccccc1)c1ccc(F)cc1", "note": "(stereo not shown) [Example 307, 3-(4-fluorophenyl)-2,2-dimethyl-3-phenyl-N-1,3-thiazol-2-ylpropanamide]", "Ki": 15.5},
      {"smiles": "CC(C)(C(=O)Nc1nccs1)C(c1ccccc1)c1ccc(-c2ccncc2)cc1", "note": "(stereo not shown) [Example 375, 2,2-dimethyl-3-phenyl-3-(4-(4-pyridinyl)phenyl)-N-1,3-thiazol-2-ylpropanamide]", "Ki": 11},
      {"smiles": "COc1ccc([C@H](c2ccccc2)C(C)(C)C(=O)Nc2nncs2)cc1", "note": "[Example 275]", "Ki": 51.9},
      {"smiles": "COc1ccc([C@H](c2ccccc2)C(C)(C)C(=O)Nc2ccccn2)cc1", "note": "[Example 277, (3S)-2,2-dimethyl-3-(4-(methyloxy)phenyl)-3-phenyl-N-2-pyridinylpropanamide]", "Ki": 2670},
      {"smiles": "Cc1ccc(C(c2ccc(N3CCOCC3)cc2)C(C)(C)C(=O)Nc2nncs2)cc1", "note": "(stereo not shown) [Example 226, 2,2-dimethyl-3-(4-methylphenyl)-3-(4-(4-morpholinyl)phenyl)-N-1,3,4-thiadiazol-2-ylpropanamide]", "Ki": 9.4},
      {"smiles": "CC(C)(C(=O)Nc1ncns1)[C@@H](c1ccccc1)c1ccc(O)cc1", "note": "[Example 342, (3S)-3-(4-hydroxyphenyl)-2,2-dimethyl-3-phenyl-N-1,2,4-thiadiazol-5-ylpropanamide]", "Ki": 8.1},
      {"smiles": "CC(C)(C(=O)Nc1nncs1)[C@@H](c1ccccc1)c1ccc(N2CCOCC2)cc1", "note": "(stereo in doubt) [Example 259, 2,2-dimethyl-3-(4-(4-morpholinyl)phenyl)-3-phenyl-N-1,3,4-thiadiazol-2-ylpropanamide]", "Ki": 190},
      {"smiles": "COc1ccc([C@@H](c2ccccc2)C(C)(C)C(=O)NC2CC2)cc1", "note": "[Example 270, (3R)-N-cyclopropyl-2,2-dimethyl-3-(4-(methyloxy)phenyl)-3-phenylpropanamide]", "Ki": 2000},
      {"smiles": "CC(C)(C(=O)Nc1nncs1)C(c1ccccc1)c1ccc(N2CCOCC2)c(F)c1", "note": "(stereo not shown) [Example 244, 3-(3-fluoro-4-(4-morpholinyl)phenyl)-2,2-dimethyl-3-phenyl-N-1,3,4-thiadiazol-2-ylpropanamide]", "Ki": 17.8},
      {"smiles": "CC(C)(C(=O)Nc1nccs1)[C@@H](c1ccccc1)c1ccc(N2CCOCC2)cc1", "note": "(stereo in doubt) [Example 257, 2,2-dimethyl-3-(4-(4-morpholinyl)phenyl)-3-phenyl-N-1,3-thiazol-2-ylpropanamide]", "Ki": 71.4},
      {"smiles": "CC(C)(C(=O)Nc1nccs1)C(c1ccccc1)c1ccc(N2CCNCC2)cc1", "note": "(stereo not shown) [Example 250, 2,2-Dimethyl-3-phenyl-3-(4-(1-piperazinyl)phenyl)-N-1,3-thiazol-2-ylpropanamide]", "Ki": 348}
    ]}
  ]
}
